In PubChem BioAssay (NCI):
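Where inhibition never reached the appropriate level, the endpoint shown equals the highest concentration tested. Otherwise, values were interpolated linearly from a five-concentration, 48-hour dose response in 96-well plates. Abbreviation: GI50, concentration required for 50% inhibition of growth. The concentration for full growth arrest is given as TGI.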

What was measured:
Assay in all cases: DTP human tumour cell line panel, 48 h
NCI-H460 lung = tested on: NCI-H460 lung
SF-268 CNS = tested on: SF-268 CNS
K-562 leukemia = tested on: K-562 leukemia
MCF7 breast = tested on: MCF7 breast
LOX IMVI melanoma = tested on: LOX IMVI melanoma
SNB-19 CNS = tested on: SNB-19 CNS
HCT-15 colon = tested on: HCT-15 colon
MALME-3M melanoma = tested on: MALME-3M melanoma
OVCAR-5 ovarian = tested on: OVCAR-5 ovarian
SK-OV-3 ovarian = tested on: SK-OV-3 ovarian
MDA-MB-435 = tested on: MDA-MB-435
NCI/ADR-RES ovarian = tested on: NCI/ADR-RES ovarian
SK-MEL-28 melanoma = tested on: SK-MEL-28 melanoma
NCI-H522 lung = tested on: NCI-H522 lung
OVCAR-3 ovarian = tested on: OVCAR-3 ovarian
COLO 205 colon = tested on: COLO 205 colon
SR leukemia = tested on: SR leukemia
MDA-N = tested on: MDA-N

Structure (SMILES)	TGI (NCI-H460 lung)	TGI (SF-268 CNS)	TGI (K-562 leukemia)	TGI (MCF7 breast)	TGI (LOX IMVI melanoma)	TGI (SNB-19 CNS)	TGI (HCT-15 colon)	TGI (MALME-3M melanoma)	TGI (OVCAR-5 ovarian)	TGI (SK-OV-3 ovarian)	TGI (MDA-MB-435)	TGI (NCI/ADR-RES ovarian)	TGI (SK-MEL-28 melanoma)	TGI (NCI-H522 lung)	TGI (OVCAR-3 ovarian)	TGI (COLO 205 colon)	TGI (SR leukemia)	TGI (MDA-N)	GI50 (SF-268 CNS)	GI50 (OVCAR-3 ovarian)
COc1cc2c(OC)c3cc(C)oc(=O)c3c(O)c2c(O)c1-c1c(OC)cc2c(OC)c3cc(C)oc(=O)c3c(O)c2c1O	42.5 µM	42.6 µM	34.3 µM	51.1 µM	43.8 µM	65.1 µM	39.4 µM	37.2 µM	40.9 µM	> 100 µM	33.9 µM	35.7 µM	53.5 µM	40 µM	33.9 µM					
COc1ccc(/C=C2\C(=O)Nc3ccccc32)cc1OC	> 100 µM	> 100 µM	> 100 µM		> 100 µM	> 100 µM	> 100 µM	> 100 µM	> 100 µM	> 100 µM			> 100 µM	> 100 µM		> 100 µM				
Nc1c2ccccc2nc2nccnc12	> 100 µM	> 100 µM	> 100 µM		> 100 µM	> 100 µM	> 100 µM	> 100 µM	> 100 µM	> 100 µM			> 100 µM	> 100 µM	> 100 µM	> 100 µM	> 100 µM			
Nc1ccc(N=Nc2ccc(-c3ccc(N=Nc4c(S(=O)(=O)O)cc5cc(S(=O)(=O)O)c(N=Nc6ccc([N+](=O)[O-])cc6)c(N)c5c4O)cc3)cc2)c2cc(S(=O)(=O)O)ccc12	> 100 µM	> 100 µM	> 100 µM		> 100 µM	> 100 µM	> 100 µM	> 100 µM	> 100 µM	> 100 µM			> 100 µM	> 100 µM	> 100 µM	> 100 µM	> 100 µM			
O=C1CCN(CCC(F)(F)C(F)(F)C(F)(F)C(F)(F)F)C(=S)N1	> 100 µM	> 100 µM	> 100 µM		> 100 µM	> 100 µM	> 100 µM	> 100 µM	> 100 µM				> 100 µM	> 100 µM	> 100 µM	> 100 µM	> 100 µM			
N#Cc1nc(/C=C/c2cccs2)oc1N		> 100 µM	> 100 µM	> 100 µM	> 100 µM	> 100 µM	> 100 µM		> 100 µM	> 100 µM	> 100 µM		> 100 µM				74 µM	> 100 µM		
Cc1ccc(OC2CC(n3cnc4c(=O)[nH]c(Br)nc43)OC2Oc2ccc(C)cc2)cc1 (stereo unspecified)	43.2 µM	58.1 µM	51.1 µM	> 100 µM	72 µM	49 µM	91.6 µM	61.5 µM	48.2 µM	> 100 µM	57.1 µM	69.2 µM		59.8 µM	39.9 µM	82.8 µM	51.1 µM			
Cc1cc2c(=O)c3ccc(Cl)cc3[nH]c2c(C(=O)O)c1C	> 100 µM	> 100 µM	> 100 µM		> 100 µM	> 100 µM	> 100 µM	> 100 µM	> 100 µM	> 100 µM			> 100 µM	> 100 µM	> 100 µM	> 100 µM				
CNc1cccc(-c2cc(=O)c3cc4c(cc3[nH]2)OCO4)c1	> 100 µM	> 100 µM	> 19 µM	> 100 µM	> 72.2 µM	> 100 µM	3.66 µM	> 100 µM	97.8 µM	1.07 µM		0.568 µM	> 100 µM	0.443 µM		0.63 µM	> 100 µM			
COc1ccccc1NC(=S)NNC(=O)c1cc(-c2ccccc2)nc2ccccc12	98 µM	74.8 µM	> 100 µM			> 100 µM	20.2 µM	28.9 µM	47 µM	42.1 µM	18.5 µM	63.5 µM	62 µM	50 µM	18.2 µM	45.8 µM	4.53 µM	7.78 µM		
Cc1ccc(NCCO)cc1	> 100 µM	> 100 µM	> 100 µM		> 100 µM	> 100 µM	> 100 µM	> 100 µM	> 100 µM	> 100 µM			> 100 µM	> 100 µM	> 100 µM	> 100 µM	> 100 µM			
Cc1c(/C=N/NC(=S)Nc2ccc([N+](=O)[O-])cc2)c(=O)n(-c2ccccc2)n1C		26.7 µM	> 100 µM	50 µM	33.3 µM	31.8 µM	49.4 µM			26.3 µM	> 100 µM	32.1 µM	> 100 µM			> 100 µM	> 100 µM			
CC(C)C1=CC23CCC4C(C)(C(=O)O)CCCC4(C)C2CC1C1C(=O)N(c2ccc(N4C(=O)C5C6CC7C8(C)CCCC(C)(C(=O)O)C8CCC7(C=C6C(C)C)C5C4=O)cc2)C(=O)C13 (stereo unspecified)		22.3 µM	> 100 µM	13.5 µM		18.8 µM	27.2 µM	27.9 µM	22 µM		13 µM		16.7 µM	17 µM	18.6 µM	10.8 µM	15.9 µM	16.1 µM		
CN1CCC2(CC1)C(=O)N(NC(N)=O)C(=O)C2c1ccccc1 (stereo unspecified)	> 100 µM	> 100 µM	> 100 µM		> 100 µM	> 100 µM	> 100 µM	> 100 µM	> 100 µM	> 100 µM	> 100 µM	> 100 µM	> 100 µM		> 100 µM	> 100 µM		> 100 µM		
COc1ccc(-c2cc(=O)c3cc4c(cc3[nH]2)OCO4)c(OC)c1	> 100 µM	> 100 µM	> 100 µM		> 100 µM	> 100 µM	> 100 µM	77.2 µM		> 100 µM			> 100 µM	> 100 µM	> 100 µM	> 100 µM	74.2 µM		62.6 µM	> 100 µM
Brc1ccc2[nH]cc([C@@H]3CN[C@@H](c4c[nH]c5ccc(Br)cc45)CN3)c2c1	24.4 µM	27.8 µM	3.74 µM	11.6 µM	3.38 µM	24.3 µM	24.8 µM	29.6 µM	20.6 µM	25.7 µM	11.9 µM	25.2 µM	27.8 µM	4.39 µM	18.4 µM	3.69 µM	4.17 µM			
NCCSC1(O)C(=O)c2ccccc2-c2ccccc21 (stereo unspecified)	3.34 µM	2.91 µM	2.43 µM	3.64 µM	0.717 µM	2.86 µM	2.54 µM	2.84 µM	3.34 µM	2.95 µM	0.207 µM	1.4 µM	2.85 µM	2.95 µM	0.38 µM	3.84 µM	1.88 µM			
CCOC(=O)C(CC(C)C)NC(=O)C(N)Cc1ccc(N(CCCl)CCCl)cc1 (stereo unspecified)	0.426 µM	16.8 µM	41.6 µM		0.278 µM	35.5 µM	11.5 µM	3.84 µM	33.7 µM	16.6 µM	46.2 µM		13.7 µM	8.53 µM	4.72 µM	12.1 µM	4.69 µM	26.1 µM		
N#CC(NNC(=O)Cc1ccccc1)c1ccc(O)cc1 (stereo unspecified)	> 100 µM	> 100 µM	> 100 µM		> 100 µM		> 100 µM	> 100 µM	> 100 µM	> 100 µM			> 100 µM	> 100 µM		> 100 µM	> 100 µM			
CCC1CN2CCc3cc(OC)c(OC)cc3C2CC1CC1c2cc(OC)c(OC)cc2CCN1C(=O)C(Cc1c[nH]c2ccccc12)NC(=O)OC(C)(C)C (stereo unspecified)	7.15 µM	15.9 µM	> 33.9 µM		3.58 µM	17.6 µM	7.35 µM	3.22 µM	16.7 µM	9.48 µM	3.4 µM	3.02 µM	4.31 µM	5.57 µM	6.74 µM	2.95 µM	13.8 µM	3.49 µM		
COc1cc(C2SC(N)=Nc3c2c(C)nn3C(=O)Cc2ccccc2)cc(OC)c1OC (stereo unspecified)	> 100 µM	> 100 µM	> 100 µM	> 100 µM	> 100 µM	> 100 µM	> 100 µM			> 100 µM	> 100 µM		> 100 µM	> 100 µM		> 100 µM	> 100 µM	> 100 µM		
O=C(CSc1nc(-c2ccccc2)c(-c2ccccc2)[nH]1)N/N=C/c1ccc([N+](=O)[O-])cc1	43.2 µM	39.2 µM			30.4 µM		28.1 µM	33.3 µM		35.3 µM			31.2 µM	28.9 µM	30 µM	30.7 µM	> 100 µM			
N[C@@H]1c2c(Br)sc(Br)c2C(=O)[C@H]1Br	> 100 µM	> 100 µM	> 67 µM	> 100 µM	33.3 µM	> 74.6 µM	60.8 µM	57.4 µM	> 100 µM	> 100 µM	> 61 µM	53.8 µM	54.8 µM	29 µM	> 89.8 µM	> 68 µM	> 64.2 µM			
